The source of these data is ChEMBL document CHEMBL1201862, “PubChem BioAssay data set” (2004).

For experiment [1], the target named is T1, Replicative DNA helicase DnaB (Mycobacterium tuberculosis, UniProt P9WMR3).
T1 sequence (P9WMR3 whole entry): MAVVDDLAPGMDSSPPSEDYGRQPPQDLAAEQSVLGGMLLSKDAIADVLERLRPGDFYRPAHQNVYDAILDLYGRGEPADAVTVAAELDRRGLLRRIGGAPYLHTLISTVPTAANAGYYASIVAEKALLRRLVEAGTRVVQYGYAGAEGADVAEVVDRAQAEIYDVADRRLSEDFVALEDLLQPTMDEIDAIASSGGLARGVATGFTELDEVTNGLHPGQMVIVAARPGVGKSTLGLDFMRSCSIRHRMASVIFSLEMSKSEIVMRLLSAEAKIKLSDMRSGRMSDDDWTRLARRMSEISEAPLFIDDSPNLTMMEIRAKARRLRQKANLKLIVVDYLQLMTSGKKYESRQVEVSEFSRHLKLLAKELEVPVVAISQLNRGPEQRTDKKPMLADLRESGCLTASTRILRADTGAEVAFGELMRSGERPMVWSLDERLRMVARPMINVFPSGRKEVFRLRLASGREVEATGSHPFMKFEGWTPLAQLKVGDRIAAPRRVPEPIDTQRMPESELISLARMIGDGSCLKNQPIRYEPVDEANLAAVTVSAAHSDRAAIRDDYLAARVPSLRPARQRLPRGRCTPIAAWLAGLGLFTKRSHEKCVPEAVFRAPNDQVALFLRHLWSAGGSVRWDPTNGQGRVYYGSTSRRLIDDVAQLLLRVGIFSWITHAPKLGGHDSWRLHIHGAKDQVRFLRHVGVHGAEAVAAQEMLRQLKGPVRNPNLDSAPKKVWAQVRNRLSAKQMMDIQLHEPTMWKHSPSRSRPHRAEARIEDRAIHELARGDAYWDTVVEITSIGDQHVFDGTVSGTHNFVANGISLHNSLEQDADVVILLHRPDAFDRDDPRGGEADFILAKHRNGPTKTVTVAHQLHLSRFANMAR
Kind of experiment: DnaB intein splicing inhibitors, dose response, biochemical, cell-free fluorescence (AID 449749). It counts as functional.

The next experiment has as its target T2, Protein RecA (Mycobacterium tuberculosis, UniProt P9WHJ3).
T2 sequence (P9WHJ3 whole entry): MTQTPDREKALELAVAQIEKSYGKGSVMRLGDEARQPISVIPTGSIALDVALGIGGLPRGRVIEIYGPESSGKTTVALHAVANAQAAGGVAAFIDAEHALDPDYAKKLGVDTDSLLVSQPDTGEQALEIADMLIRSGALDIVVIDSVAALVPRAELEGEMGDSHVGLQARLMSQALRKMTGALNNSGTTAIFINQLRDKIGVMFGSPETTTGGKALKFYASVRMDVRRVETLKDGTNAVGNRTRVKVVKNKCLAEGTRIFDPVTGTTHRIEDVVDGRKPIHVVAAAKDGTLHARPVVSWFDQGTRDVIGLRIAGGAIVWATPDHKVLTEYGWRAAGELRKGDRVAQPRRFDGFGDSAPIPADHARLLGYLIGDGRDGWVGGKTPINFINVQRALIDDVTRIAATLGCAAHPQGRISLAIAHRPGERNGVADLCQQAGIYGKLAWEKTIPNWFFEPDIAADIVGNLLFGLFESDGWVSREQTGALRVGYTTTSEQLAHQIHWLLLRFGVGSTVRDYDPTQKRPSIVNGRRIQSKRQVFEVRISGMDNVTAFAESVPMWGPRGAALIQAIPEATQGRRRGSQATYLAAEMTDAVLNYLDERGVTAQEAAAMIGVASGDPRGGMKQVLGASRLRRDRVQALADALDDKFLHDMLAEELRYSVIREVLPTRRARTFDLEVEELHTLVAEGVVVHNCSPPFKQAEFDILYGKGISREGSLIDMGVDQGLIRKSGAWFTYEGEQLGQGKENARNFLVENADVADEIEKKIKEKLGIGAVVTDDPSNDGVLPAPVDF
Kind of experiment: Fluorescence Cell-Free Homogeneous Dose Retest to Identify Inhibitors of RecA-Intein Splicing Activity. [Related pubchem assays (depositor defined):AID2097, AID2223, AID489010, AID492950]. It counts as functional.

A further experiment deals with T3, Protein skinhead-1 (Caenorhabditis elegans, UniProt P34707).
T3 sequence (P34707 whole entry): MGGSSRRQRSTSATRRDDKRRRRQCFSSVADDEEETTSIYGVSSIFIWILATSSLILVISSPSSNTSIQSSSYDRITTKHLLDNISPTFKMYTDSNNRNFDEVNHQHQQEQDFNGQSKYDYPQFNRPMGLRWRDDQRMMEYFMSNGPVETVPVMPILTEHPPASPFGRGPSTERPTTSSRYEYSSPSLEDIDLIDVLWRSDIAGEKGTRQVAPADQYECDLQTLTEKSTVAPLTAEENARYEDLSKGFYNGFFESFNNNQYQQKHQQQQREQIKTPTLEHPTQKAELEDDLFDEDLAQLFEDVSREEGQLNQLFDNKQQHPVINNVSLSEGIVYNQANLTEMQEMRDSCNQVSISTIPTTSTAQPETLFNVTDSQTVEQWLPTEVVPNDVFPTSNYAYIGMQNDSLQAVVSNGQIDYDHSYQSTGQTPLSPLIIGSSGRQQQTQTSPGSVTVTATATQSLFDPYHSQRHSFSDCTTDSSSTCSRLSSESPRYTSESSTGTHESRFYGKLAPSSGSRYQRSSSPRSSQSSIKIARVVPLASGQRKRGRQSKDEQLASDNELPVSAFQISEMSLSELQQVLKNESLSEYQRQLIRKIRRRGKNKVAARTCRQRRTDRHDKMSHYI
The experiment is classed as functional.

Experiment [2] is described as follows: NIH-3T3 fibroblast cytotoxicity, dose response, cytotoxicity control, cell-based, fluorescence, Alamar Blue, secondary assay (AID 2327).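 Note: NIH-3T3 mouse fibroblasts cultured with fluconazole at 8 µg/mL.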 The experiment is classed as functional.
Experiment [3] can be described thus: fluconazole-exposed Candida albicans growth modulators – fluorescence, retest, confirmation (AID 2467). The experiment is classed as functional, cell-based.
Experiment [4] in a line: Luminescence Cell-Based Dose Retest to Confirm Inhibitors of Cancer Stem Cells. [Related pubchem assays (depositor defined):AID2717, AID2721]. It counts as functional. The conditions noted are these: Homo sapiens.
Experiment [5] is described as follows: Luminescence Cell-Based Dose Response HTS to Identify Activators of Luciferase Translation or Activity in H4 […] Cells. [Related pubchem assays: 1829 (Project Summary), 1814 (Primary HTS)]. The experiment is classed as functional.
For a further experiment, the system named is H4. Kind of experiment: Luminescence Cell-Based Dose Response HTS to Identify Activators of 5'UTR Stem-Loop Driven Prion Protein mRNA Translation in H4 Neuroglioblastoma Cells. [Related pubchem assays: 1829 (Project Summary), 1814 (Primary HTS)]. The experiment is classed as functional. The conditions noted are these: Homo sapiens.
Experiment [6] concerns the target T4, Heat shock factor protein 1 (Mus musculus, UniProt P38532).
T4 sequence (P38532 whole entry): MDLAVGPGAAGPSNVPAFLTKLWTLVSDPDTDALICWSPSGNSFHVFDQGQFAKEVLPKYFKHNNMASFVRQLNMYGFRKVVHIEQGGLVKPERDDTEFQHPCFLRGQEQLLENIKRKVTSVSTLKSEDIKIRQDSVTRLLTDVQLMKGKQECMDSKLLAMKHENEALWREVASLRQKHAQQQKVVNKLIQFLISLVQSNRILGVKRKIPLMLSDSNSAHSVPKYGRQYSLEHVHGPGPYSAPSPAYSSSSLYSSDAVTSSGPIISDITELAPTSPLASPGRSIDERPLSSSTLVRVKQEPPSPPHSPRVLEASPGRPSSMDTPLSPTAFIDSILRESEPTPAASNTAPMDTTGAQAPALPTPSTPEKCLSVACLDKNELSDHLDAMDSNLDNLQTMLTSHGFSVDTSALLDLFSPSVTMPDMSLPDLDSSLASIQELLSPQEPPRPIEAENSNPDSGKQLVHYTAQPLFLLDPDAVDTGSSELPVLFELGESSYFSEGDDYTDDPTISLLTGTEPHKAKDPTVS
Kind of experiment: enhancement of HSF1-driven luciferase signal – cell-based, NIH3T3, luminescence, dose retest, confirmation (AID 435004).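 Note: stress induced by proteasome inhibitor MG132 added 30 min after compound; luciferase reporter driven by HSF1 response element in NIH3T3 cells; actives raise luminescence as potentiators of the MG132 stress response.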 The experiment is classed as functional.

Experiment [7] can be described thus: Trypanosoma cruzi growth suppression in host cells – NIH3T3 host cells, beta-gal luminescence, confirmation (AID 2044).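 Note: intracellular parasites grown in NIH/3T3 mouse fibroblasts as host cells; luminescent beta-galactosidase reporter signal from transgenic T. cruzi replicating inside host cells; inhibitors lower the luminescence signal.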 The experiment is classed as functional, cell-based.
Experiment [8] in a line: NIH3T3 cell viability loss – ATP luminescence, mouse fibroblasts, counter-screen, dose response (AID 2010).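 Note: cells exposed to compound for about 90 hours before reading.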 The experiment is classed as functional, cell-based.
In another experiment the target is Cytochrome P450 3A4 (Homo sapiens, UniProt P08684).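 Note: CYP3A4 tested as one member of a cytochrome P450 panel screen.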
Chain of Cytochrome P450 3A4 (P08684 whole entry): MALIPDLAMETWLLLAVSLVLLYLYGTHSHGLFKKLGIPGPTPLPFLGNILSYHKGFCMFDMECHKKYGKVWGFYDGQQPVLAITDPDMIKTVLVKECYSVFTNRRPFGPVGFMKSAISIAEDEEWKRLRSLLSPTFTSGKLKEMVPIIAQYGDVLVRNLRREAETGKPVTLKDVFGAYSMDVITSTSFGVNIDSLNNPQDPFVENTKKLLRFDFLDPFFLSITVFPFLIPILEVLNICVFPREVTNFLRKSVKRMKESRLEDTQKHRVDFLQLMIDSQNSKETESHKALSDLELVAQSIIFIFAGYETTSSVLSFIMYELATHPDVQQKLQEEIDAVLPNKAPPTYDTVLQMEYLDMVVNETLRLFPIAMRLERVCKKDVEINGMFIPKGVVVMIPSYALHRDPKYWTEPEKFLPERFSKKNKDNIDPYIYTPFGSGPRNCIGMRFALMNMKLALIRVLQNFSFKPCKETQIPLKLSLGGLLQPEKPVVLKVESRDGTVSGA
For a further experiment, the target named is Cytochrome P450 2C9 (Homo sapiens, UniProt P11712).
Chain of Cytochrome P450 2C9 (P11712 whole entry): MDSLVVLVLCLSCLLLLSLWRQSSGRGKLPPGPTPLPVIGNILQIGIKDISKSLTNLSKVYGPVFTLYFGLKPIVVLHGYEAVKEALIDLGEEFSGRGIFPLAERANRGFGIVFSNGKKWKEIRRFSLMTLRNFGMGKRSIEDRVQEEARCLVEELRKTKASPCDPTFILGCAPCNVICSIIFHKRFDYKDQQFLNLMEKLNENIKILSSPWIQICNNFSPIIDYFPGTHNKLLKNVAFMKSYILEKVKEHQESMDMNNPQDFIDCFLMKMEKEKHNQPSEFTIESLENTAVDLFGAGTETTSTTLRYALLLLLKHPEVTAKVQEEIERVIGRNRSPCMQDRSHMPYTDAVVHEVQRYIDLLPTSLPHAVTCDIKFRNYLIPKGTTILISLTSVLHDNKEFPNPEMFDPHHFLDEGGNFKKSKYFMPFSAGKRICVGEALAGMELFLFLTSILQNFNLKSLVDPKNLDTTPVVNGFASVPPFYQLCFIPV
The nature of experiment [9]: viability of uninfected HEp-2 cells – cell-based, HTS, cytotoxicity control for RSV inhibitor project, dose response (AID 2410). It counts as functional. The note with it: human respiratory syncytial virus.

Structures are written as SMILES. Activity calls are given as the source filed them. Cut-off read from the data, not from the text of the source, for most assays here: actives have a measured EC50 and inactives only a lower limit. A value given as a limit tells only on which side of the number the result lay.

For `N#CC1=C(N)N(c2ccccc2)C(c2ccccc2)C1(C#N)C#N` (stereo not drawn), in experiment [1], the AC50 was 7.51 µM (active). The EC50 on Protein RecA was 11.6 µM (active).
For the compound `CCCOc1ccc(C(=O)C2=C(O)C(=O)N(c3cc(C)on3)C2c2ccc(C(=O)OC)cc2)cc1` (stereo not drawn), the IC50 on Protein skinhead-1 was > 100 µM (inactive).
With `Cc1nc(-c2cccc(NC(=O)c3ccco3)c2)cs1`, the IC50 at Protein skinhead-1 is > 100 µM (inactive).
In the case of `COc1ccc(CC(=O)O/N=C(\N)Cc2cccc3ccccc23)cc1OC`, the AC50 in experiment [1] is 73.3 µM (active). Also, on Protein RecA, the 50% effective concentration (EC50) is 18.2 µM (active).
The matching figures for `COC(=O)c1ccc(C(=O)OC)c(-n2c(=O)c3ccccc3c3ccccc3c2=O)c1`: 8.61 µM (active) and 18.5 µM (active).
In the case of `CCOCCCNC(=O)c1ccc(N(C)S(=O)(=O)c2ccc(OC)cc2)cc1`, the EC50 in [2] is > 160 µM (inactive); in experiment [3], > 38 µM (not active).
Regarding `CCn1c(C)nc2cc(C(=O)N/N=C/c3cccc(OC)c3O)ccc21`, the EC50 in experiment [2] was 16.2 µM (active); in [3], > 38 µM (not active). In [4], the AC50 was 8.16 µM (active).
Turning to `CCCn1c(C)cc(C(=O)CSc2nc3ccccc3c(=O)n2Cc2ccco2)c1C`, the EC50 is 0.112 µM (active) in [5] and 5 µM (active) with H4.
In the case of `CC12CCC(=O)N1C(C(=O)Nc1cccc3ccccc13)CS2` (stereo not drawn), the EC50 in [6] is > 260 µM (inactive).
The same measure, in the same setting: next, `Cn1c(CN2CCN(C(=O)c3ccc(F)cc3)CC2)nc2cc([N+](=O)[O-])ccc21`: > 260 µM (inactive); `O=C1NC(=O)[C@]2(Cc3ccccc3N3CCN(c4ccccc4)CC32)C(=O)N1Cc1ccccc1` (stereo partly drawn): > 260 µM (inactive).
For the compound `CCC(=O)Nc1ccc2nn(-c3ccc(F)cc3)nc2c1`, the values for the EC50 in [7], in [8] and in experiment [6] were 4.4 µM (active), > 60 µM (not active) and > 260 µM (inactive), respectively.
On to `CCCNC(=O)c1ccc2c(O)c(O)c(-c3ccc(OC)cc3)nc2c1`, for which the figures for the EC50 in experiment [2] and in experiment [3] were > 150 µM (inactive) and > 38 µM (not active), respectively.
As for `Cc1cc(C)n(CC(O)COc2ccc(Cl)cc2Cl)n1` (stereo not drawn), the EC50 in [6] is 116 µM (active).
Still for that read-out and setting: the figure for `Cn1c(Sc2ccc(C(F)(F)F)cc2[N+](=O)[O-])nnc1-c1ccccc1` is > 260 µM (inactive).
Consider `COc1ccc(C(C(=O)NC2CCCC2)N(C(=O)c2snc(-c3ccc(F)cc3)c2N)c2ccc(F)cc2)cc1` (stereo not drawn), for which the IC50 on Protein skinhead-1 was > 100 µM (inactive). Further, the AC50 on Cytochrome P450 3A4 is 12.6 µM (inconclusive); on Cytochrome P450 2C9 it was 1.78 µM (inconclusive).
Regarding `O=C(Oc1ccc(N2C(=O)C3C4CCC(C4)C3C2=O)cc1)c1ccco1` (stereo not drawn), the AC50 in experiment [1] was 28.2 µM (active). In addition, the EC50 at Protein RecA is 13 µM (active).
On to `CCCc1cc2nnc(SCC(=O)N(C)C3CCCCC3)n2c(N)n1`, for which the IC50 at Protein skinhead-1 is > 100 µM (inactive).
With `COc1ccc(/C=N/OCC(=O)Nc2nc3ccccc3s2)cc1`, the figures for the EC50 in experiment [2] and in [3] were > 150 µM (inactive) and 4.97 µM (active), respectively.
On to `CC(=O)Nc1ccc2c(c1)Cc1c-2cc(Br)c(N)c1Br`, for which the IC50 at Protein skinhead-1 was > 100 µM (inactive).
On the same count and under the same terms, next, `Clc1ccc(-c2cc(CSc3ccccc3)on2)cc1`: 20 µM (active); `CC(C)(C)c1ccc(C2=CSC3=NCCN23)cc1`: > 100 µM (inactive).
For the compound `Cc1cc(-c2ccccc2)nc2cc(C(=O)N(Cc3ccccc3)Cc3ccccc3)nn12`, the AC50 was 4.86 µM (active) in experiment [4] and > 120 µM (inactive) in experiment [1]. In addition, the EC50 at Protein RecA was > 380 µM (inactive).
As to `Cc1cc2cc(CNC(=O)c3cccc([N+](=O)[O-])c3)ccc2n1C`, at Protein skinhead-1, the IC50 was > 100 µM (inactive).
With `CCCCNc1nc(Nc2ccc(C)c(Cl)c2)c2cnn(C)c2n1`, the CC50 in experiment [9] was 6.78 µM (active). Further, the concentration at half-maximal activity (AC50) in experiment [4] is 9.2 µM (active). The EC50 in experiment [6] is > 260 µM (inactive).
`N#Cc1ccccc1OCC(O)CS(=O)(=O)c1ccccc1` (stereo not drawn): on Protein skinhead-1, the IC50 was > 100 µM (inactive).
Take `Cc1ccc(CNC(=O)c2cn(C3CCCCC3)c(=O)c3c2c2ccccc2n3C)o1`: the CC50 in [9] is 23.3 µM (active). In addition, in experiment [6], the EC50 was 51.7 µM (active).
For the compound `CCC(C)Nc1nc(Cl)nc(N(C#N)CN2C(=O)c3ccccc3S2(=O)=O)n1` (stereo not drawn), the AC50 in experiment [1] was 14 µM (active). For the same compound, the EC50 on Protein RecA was 18.2 µM (active).
